Where two headings read alike, the source gives them in different places.
Experiments:
human TLR2 = human TLR2 (Homo sapiens, UniProt O60603); test: Reporter gene assay: HEK 293 cells stably transfected with human TLR2 and NF-kB-driven luciferase reporter; conditions: for Emax: HEK293, 7 h, read-out: Hek-TLR2 (% Eff); for EC50: HEK 293 stably transfected with human TLR2 and pNifty-Luciferase, 7 hours incubation, concentration giving 50% of maximal signal; for Hek-TLR2 (% Eff): % Eff relative to Pam3CSK4, HEK 293 human TLR2 NF-kB luciferase
Chain of human TLR2 (O60603 21-784): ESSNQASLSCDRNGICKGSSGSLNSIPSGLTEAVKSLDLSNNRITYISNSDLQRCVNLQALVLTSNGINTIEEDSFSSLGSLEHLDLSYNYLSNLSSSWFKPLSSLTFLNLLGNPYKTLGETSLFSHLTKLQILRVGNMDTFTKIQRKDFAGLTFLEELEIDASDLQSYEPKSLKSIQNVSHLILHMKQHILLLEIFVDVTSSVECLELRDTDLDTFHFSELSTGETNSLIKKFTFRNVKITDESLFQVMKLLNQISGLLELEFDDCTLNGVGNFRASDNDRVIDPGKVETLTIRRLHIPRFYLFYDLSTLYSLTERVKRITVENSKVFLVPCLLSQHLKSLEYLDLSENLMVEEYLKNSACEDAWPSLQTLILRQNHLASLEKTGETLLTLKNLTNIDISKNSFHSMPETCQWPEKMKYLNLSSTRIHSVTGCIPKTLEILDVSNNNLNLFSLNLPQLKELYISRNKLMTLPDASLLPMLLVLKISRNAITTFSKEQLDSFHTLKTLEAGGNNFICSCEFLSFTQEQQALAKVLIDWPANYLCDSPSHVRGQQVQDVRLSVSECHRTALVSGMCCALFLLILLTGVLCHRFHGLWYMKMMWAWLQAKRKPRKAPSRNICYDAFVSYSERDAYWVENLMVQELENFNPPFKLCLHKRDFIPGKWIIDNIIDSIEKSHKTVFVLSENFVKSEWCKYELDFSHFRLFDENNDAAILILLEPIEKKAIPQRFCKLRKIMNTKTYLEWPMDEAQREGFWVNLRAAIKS
Procedure: As a control assay, normal Hek293 transfected with pNifty-Luc were used. […] Bright-Glo™ Luciferase assay buffer and substrate were supplied by Promega #E263B and #E264B (assay substrate and buffer respectively). 384 well clear-bottom plates were supplied by Greiner bio-one (#789163-G) and were custom bar-coded plates.
Cells were plated at 25,000 cells/well in 384-well plates in a final volume of 50 μl of media. Cells were allowed to adhere to the plates after overnight (18 hours) culture at 37° C. and 5% CO2. Serially diluted experimental and positive control compounds were then dispensed to each well and incubated for 7 hours at 37° C. and 5% CO2. Cells stimulated with DMSO alone also serve as negative controls. After the incubation, 30 μl of the pre-mix assay buffer and substrate buffer were added to each well according to manufacturer's instructions. The luminescence signal was read on a CLIPR machine with an integration time of 20 seconds per plate.

[1] = Evaluation of % alum binding at pH 6.5 (HPLC-MS/MS of supernatant); type: physicochemical; conditions: 1 mg/mL formulation with aluminum hydroxide adjuvant in Histidine buffer, stirred at 25° C. overnight, control without aluminum hydroxide
Procedure: Evaluation of % Alum Binding
The binding of certain compounds of Formula (I) to aluminum-containing adjuvants at pH 6.5 was evaluated using HPLC-MS/MS to monitor the presence of the compound of Formula (I) in the supernatant.
Evaluation of Binding at pH 6.5
To a mixture of compound (4 mg/mL) in Endotox free water was added 1 M NaOH (2.1 eq) to achieve a clear solution. A mixture of the resulting solution (0.5 mL), Endotox free water (0.86 mL), 100 mM Histidine buffer (0.2 mL) and aluminum hydroxide adjuvant (13.78 mg/mL, 0.44 mL) was stirred at 25° C. overnight to result in a 1 mg/mL formulation. An additional 1 mg/mL formulation was prepared as control in 10 mM Histidine buffer without aluminum hydroxide.
Three 50 uL aliquots of each formulation (in Histidine buffer with and without aluminum hydroxide) were centrifuged at 14,000 rpm for 10 minutes at 4° C. The supernatant was diluted, treated with an internal standard and analyzed by HPLC-MS/MS using a ballistic gradient (from 50% CH3CN-1.0% NH4OH to 95% CH3CN-1.0% NH4OH in 1.5 minutes) on a C8 ([…]×2.1 mm) Waters XBridge column at ambient temperature. The supernatant concentration was determined for each formulation. The fraction in the aluminum hydroxide formulation bound to alum was calculated as follows: […]

Question: For `CCCCCCCCCCCC(=O)OC[C@H](CSC[C@H](N)C(=O)NCCOCCP(=O)(O)O)OC(=O)CCCCCCCCCCC` [Example 3, (8R,12R)-8-amino-12-(dodecanoyloxy)-7,15-dioxo-3,14-dioxa-10-thia-6-azahexacosylphosphonic acid], which Emax (human TLR2) is on record?
Answer: 103%

Question: What about the EC50 (human TLR2; Hek-TLR2 μM (EC50)) of the same compound?
Answer: 0.119 µM

Question: What about the “Alum Binding %” value [1] of the same compound?
Answer: >80%

Question: With `CCCCCCCCCCCC(=O)OC[C@H](CSC[C@H](N)C(=O)NCCOCCOCCP(=O)(O)O)OC(=O)CCCCCCCCCCC` [Example 5, (11R,15R)-11-amino-15-(dodecanoyloxy)-10,18-dioxo-3,6,17-trioxa-13-thia-9-azanonacosylphosphonic acid] as the compound, how does the “Alum Binding %” value [1] read?
Answer: >80%

Question: Which “Alum Binding %” value [1] does the source give for `CCCCCCCCCCCC(=O)OC[C@H](CSC[C@H](N)C(=O)NC1(COCCCP(=O)(O)O)CC1)OC(=O)CCCCCCCCCCC` [Example 15, 3-((1-((R)-2-amino-3-((R)-2,3-bis(dodecanoyloxy)propylthio)propanamido)cyclopropyl)methoxy)propylphosphonic acid] here?
Answer: >80%

Question: What does the source list for `CCCCCCCCCCCC(=O)OC[C@H](CSC[C@H](N)C(=O)NCCOCCOCCOCCP(=O)(O)O)OC(=O)CCCCCCCCCCC` [Example 18, (14R,18R)-14-amino-18-(dodecanoyloxy)-13,21-dioxo-3,6,9,20-tetraoxa-16-thia-12-azadotriacontylphosphonic acid]?
Answer: Emax (human TLR2): 96%; EC50 (human TLR2; Hek-TLR2 μM (EC50)): 0.27 µM; Alum Binding % [1]: >80%

Question: Which “Alum Binding %” value [1] does the source give for `CCCCCCCCCCCC(=O)OC[C@H](CSC[C@H](N)C(=O)NCCCC(F)(F)P(=O)(O)O)OC(=O)CCCCCCCCCCC` [Example 19, 4-((R)-2-amino-3-((R)-2,3-bis(dodecanoyloxy)propylthio)propanamido)-1,1-difluorobutylphosphonic acid] here?
Answer: >80%

Question: Which Emax (human TLR2) does the source give for `CCCCCCCCCCCCOC[C@H](CSC[C@H](N)C(=O)NCCOCCOCCOCCP(=O)(O)O)OCCCCCCCCCCCC` [Example 20, (14R,18R)-14-amino-18-(dodecyloxy)-13-oxo-3,6,9,20-tetraoxa-16-thia-12-azadotriacontylphosphonic acid] here?
Answer: 84%

Question: What about the EC50 (human TLR2; Hek-TLR2 μM (EC50)) of the same compound?
Answer: 0.552 µM

Question: What about the “Alum Binding %” value [1] of the same compound?
Answer: >80%

Question: Which results are given for `CCCCCCCCCCCCOC[C@H](CSC[C@H](N)C(=O)NCCOCCOCCOCCP(=O)(O)O)NC(=O)CCCCCCCCCCC` [Example 26, ((14R,18R)-14-amino-18-dodecanamido-13-oxo-3,6,9,20-tetraoxa-16-thia-12-azadotriacontyl)phosphonic acid]?
Answer: Emax (human TLR2): 28%; EC50 (human TLR2; Hek-TLR2 μM (EC50)): 1.75 µM; Alum Binding % [1]: >80%

Question: Which Emax (human TLR2) does the source give for `CCCCCCCCCCCCOC[C@H](CSC[C@H](N)C(=O)NCCOCCOCCOCCOCCP(=O)(O)O)OCCCCCCCCCCCC` [Example 78, ((17R,21R)-17-amino-21-(dodecyloxy)-16-oxo-3,6,9,12,23-pentaoxa-19-thia-15-azapentatriacontyl)phosphonic acid] here?
Answer: 35%

Question: And the EC50 (human TLR2; Hek-TLR2 μM (EC50))?
Answer: 1.43 µM

Question: Which Emax (human TLR2) does the source give for `CCCCCCCCCCCCOC[C@H](CSC[C@H](N)C(=O)NCCOCCOCCOCCOCCP(=O)(O)O)NC(=O)CCCCCCCCCCC` [Example 79, ((17R,21R)-17-amino-21-dodecanamido-16-oxo-3,6,9,12,23-pentaoxa-19-thia-15-azapentatriacontyl)phosphonic acid] here?
Answer: 20%

Question: What about the EC50 (human TLR2; Hek-TLR2 μM (EC50)) of the same compound?
Answer: 1.86 µM

Question: Which Emax (human TLR2) does the source give for `CCCCCCCCCCCCOC[C@H](CSC[C@H](N)C(=O)N[C@@H](CO)C(=O)NCCOCCOCCP(=O)(O)O)OCCCCCCCCCCCC` [Example 80, ((11S,14R,18R)-14-amino-18-(dodecyloxy)-11-(hydroxymethyl)-10,13-dioxo-3,6,20-trioxa-16-thia-9,12-diazadotriacontyl)phosphonic acid] here?
Answer: 52%

Question: And the EC50 (human TLR2; Hek-TLR2 μM (EC50))?
Answer: 1.91 µM

Question: With `CCCCCCCCCCCCOC[C@H](CSC[C@H](N)C(=O)N[C@@H](CO)C(=O)NCCOCCOCCP(=O)(O)O)NC(=O)CCCCCCCCCCC` [Example 81, ((11S,14R,18R)-14-amino-18-dodecanamido-11-(hydroxymethyl)-10,13-dioxo-3,6,20-trioxa-16-thia-9,12-diazadotriacontyl)phosphonic acid] as the compound, how does the Emax (human TLR2) read?
Answer: 30%

Question: And the EC50 (human TLR2; Hek-TLR2 μM (EC50))?
Answer: 1.97 µM

Question: For `CCCCCCCCCCNC(=O)OC[C@H](CSC[C@H](NC(C)=O)C(=O)NCCOCCOCCOCCP(=O)(O)O)OC(=O)NCCCCCCCCCC` [Example 82, ((14R,18R)-14-acetamido-18-((decylcarbamoyl)oxy)-13,21-dioxo-3,6,9,20-tetraoxa-16-thia-12,22-diazadotriacontyl)phosphonic acid], which Emax (human TLR2) is on record?
Answer: 84%

Question: What about the EC50 (human TLR2; Hek-TLR2 μM (EC50)) of the same compound?
Answer: 0.83 µM

Question: For `CCCCCCCCCCNC(=O)OC[C@H](CSC[C@H](N)C(=O)NCCOCCOCCOCCP(=O)(O)O)OC(=O)NCCCCCCCCCC` [Example 83, ((14R,18R)-14-amino-18-((decylcarbamoyl)oxy)-13,21-dioxo-3,6,9,20-tetraoxa-16-thia-12,22-diazadotriacontyl)phosphonic acid], which Emax (human TLR2) is on record?
Answer: 76%

Question: What about the EC50 (human TLR2; Hek-TLR2 μM (EC50)) of the same compound?
Answer: 0.82 µM

Question: Which Emax (human TLR2) does the source give for `CCCCCCCCCCCC(=O)OC[C@H](CSC[C@H](N)C(=O)NCCCS(=O)(=O)O)OC(=O)CCCCCCCCCCC` [Example 84, 3-((R)-2-amino-3-(((R)-2,3-bis(dodecanoyloxy)propyl)thio)propanamido)propane-1-sulfonic acid] here?
Answer: 72%

Question: What about the EC50 (human TLR2; Hek-TLR2 μM (EC50)) of the same compound?
Answer: 5.56 µM

Question: Which Emax (human TLR2) does the source give for `CCCCCCCCCCNC(=O)OC[C@H](CSC[C@H](NC(=O)CCCCCC)C(=O)NCCOCCOCCOCCP(=O)(O)O)OC(=O)NCCCCCCCCCC` [Example 85, ((14R,18R)-18-((decylcarbamoyl)oxy)-14-heptanamido-13,21-dioxo-3,6,9,20-tetraoxa-16-thia-12,22-diazadotriacontyl)phosphonic acid] here?
Answer: 71%

Question: What about the EC50 (human TLR2; Hek-TLR2 μM (EC50)) of the same compound?
Answer: 2.17 µM

Question: For `CCCCCCCCCCCC(=O)OC[C@H](CSC[C@H](N)C(=O)NCCOCCOCCOCCC(=O)O)OC(=O)CCCCCCCCCCC` [Example 86, (15R,19R)-15-amino-19-(dodecanoyloxy)-14,22-dioxo-4,7,10,21-tetraoxa-17-thia-13-azatritriacontan-1-oic acid], which Emax (human TLR2) is on record?
Answer: 84%

Question: What about the EC50 (human TLR2; Hek-TLR2 μM (EC50)) of the same compound?
Answer: 0.9 µM

Question: Which Emax (human TLR2) does the source give for `CCCCCCCCCCCCCCCC(=O)N[C@@H](CSC[C@@H](COC(=O)CCCCCCCCCCC)OC(=O)CCCCCCCCCCC)C(=O)NCCOCCOCCOCCC(=O)O` [Example 87, (15R,19R)-19-(dodecanoyloxy)-14,22-dioxo-15-palmitamido-4,7,10,21-tetraoxa-17-thia-13-azatritriacontan-1-oic acid] here?
Answer: 30%

Question: What about the EC50 (human TLR2; Hek-TLR2 μM (EC50)) of the same compound?
Answer: 38 µM

Question: What does the source list for `CCCCCCCCCCCC(=O)OC[C@H](CSC[C@H](N)C(=O)N[C@@H](CO)C(=O)NCCOCCOCCOCCC(=O)O)OC(=O)CCCCCCCCCCC` [Example 88, (15S,18R,22R)-18-amino-22-(dodecanoyloxy)-15-(hydroxymethyl)-14,17,25-trioxo-4,7,10,24-tetraoxa-20-thia-13,16-diazahexatriacontan-1-oic acid]?
Answer: Emax (human TLR2): 145%; EC50 (human TLR2; Hek-TLR2 μM (EC50)): 0.0092 µM

Question: With `CCCCCCCCCCCCCCCC(=O)N[C@@H](CSC[C@@H](COC(=O)CCCCCCCCCCC)OC(=O)CCCCCCCCCCC)C(=O)N[C@@H](CO)C(=O)NCCOCCOCCOCCC(=O)O` [Example 89, (15S,18R,22R)-22-(dodecanoyloxy)-15-(hydroxymethyl)-14,17,25-trioxo-18-palmitamido-4,7,10,24-tetraoxa-20-thia-13,16-diazahexatriacontan-1-oic acid] as the compound, how does the Emax (human TLR2) read?
Answer: 104%

Question: What about the EC50 (human TLR2; Hek-TLR2 μM (EC50)) of the same compound?
Answer: 4.94 µM

Question: Which Emax (human TLR2) does the source give for `CCCCCCCCCCCCOC[C@H](CSC[C@H](N)C(=O)NCCOCCOCCOCCP(=O)(O)O)OC(=O)NCCCCCCCCCC` [Example 90, ((14R,18R)-14-amino-18-((dodecyloxy)methyl)-13,20-dioxo-3,6,9,19-tetraoxa-16-thia-12,21-diazahentriacontyl)phosphonic acid] here?
Answer: 47%

Question: What about the EC50 (human TLR2; Hek-TLR2 μM (EC50)) of the same compound?
Answer: > 100 µM

Question: For `CCCCCCCCCCCC(=O)OC[C@H](CSC[C@H](N)C(=O)NCCOCCOS(=O)(=O)O)OC(=O)CCCCCCCCCCC` [Example 91, (R)-3-(((R)-2-amino-3-oxo-3-((2-(2-(sulfooxy)ethoxy)ethyl)amino)propyl)thio)propane-1,2-diyl didodecanoate], which Emax (human TLR2) is on record?
Answer: 120%

Question: And the EC50 (human TLR2; Hek-TLR2 μM (EC50))?
Answer: 0.061 µM

Question: Which Emax (human TLR2) does the source give for `CCCCCCCCCCNC(=O)OC[C@H](CSC[C@H](NC(=O)CCCCC)C(=O)NCCOCCOCCOCCP(=O)(O)O)OC(=O)NCCCCCCCCCC` [Example 92, ((14R,18R)-18-((decylcarbamoyl)oxy)-14-hexanamido-13,21-dioxo-3,6,9,20-tetraoxa-16-thia-12,22-diazadotriacontyl)phosphonic acid] here?
Answer: 99%

Question: And the EC50 (human TLR2; Hek-TLR2 μM (EC50))?
Answer: 0.28 µM

Question: For “(4R,7S,10R,14R)-4-carbamoyl-7-ethyl-6,9,17-trioxo-10-palmitamido-14-(palmitoyloxy)-16-oxa-12-thia-5,8-diazadotriacontan-1-oic acid [Example 47]”, which “Hek-TLR2 (% Eff)” value (human TLR2) is on record?
Answer: (88%)

Question: And the EC50 (human TLR2; read-out: Hek-TLR2 μM (EC50))?
Answer: 0.565 µM

Question: For “(4R,7S,10R,14R)-10-amino-4-carbamoyl-7-ethyl-6,9,17-trioxo-14-(palmitoyloxy)-16-oxa-12-thia-5,8-diazadotriacontan-1-oic acid [Example 48]”, which “Hek-TLR2 (% Eff)” value (human TLR2) is on record?
Answer: (106%)

Question: What about the EC50 (human TLR2; read-out: Hek-TLR2 μM (EC50)) of the same compound?
Answer: 1.36 µM

— US9365506B2, “Compounds and compositions as TLR2 agonists” (NOVARTIS AG, priority 2010, dated 2016)
